# Assay results: US9902986B2, “Enterobactin conjugates and uses thereof” (Massachusetts Institute of Technology, priority 2013, dated 2018)
# “Also recorded” adds a separate entry of the source.
# Legend:
# E. coli UTI89 = assay: Competition assay with native siderophores, E. coli UTI89; assay type: cell-based, Escherichia coli; settings: conjugate 100 nM, varied Ent, MGE or DGE, 50% MHB, 200 μM DP, 30° C., t=19 h
# Protocol: Ent was synthesized following a literature procedure^55 and stored as DMSO stock solution at −20° C. MGE and DGE were prepared from Ent using MceC and IroB as described for MGE-PEG3-N3 and DGE-PEG3-N3.
# (§1) In an exemplary experiment, select conjugates (Ent-Amp, MGE-Amp, and DGE-Amp) with select native siderophores (Ent, MGE, and DGE) were tested against the uropathogenic strain E. coli UTI89 in 50% MHB, t=19 h, 30° C. […] The concentration of the conjugates was fixed at 100 nM, and the concentration of the native siderophores was varied. […] These observations indicate that Ent, MGE, Ent-Amp, and MGE-Amp may enter via both FepA and IroN with different efficiency, but DGE and DGE-Amp may only enter via IroN.
# as §1, with “In another” for “In an”, “100 nM” for “100 nM,”
# various E. coli strains = assay: Antibacterial activity against a panel of E. coli strains; assay type: cell-based, Escherichia coli; settings: 6 strains of E. coli (K-12, B, H9049, 25922, UTI89, CFT073)
# Protocol: (§2) Overnight cultures of the bacterial strains were prepared by inoculating 5 mL of LB with the bacterial freezer stocks and the cultures were incubated at 37° C. in a tabletop incubator shaker set at 150 rpm. The overnight culture grew to saturation and was diluted 1:100 into 5 mL of fresh LB medium containing DP (200 μM) and incubated at 37° C. with shaking at 150 rpm until OD600 reached 0.6. The cultures were subsequently diluted to an OD600 value of 0.001 in 50% MHB medium (11.5 g/L) with or without DP (200 μM). No antibiotic marker was included in these cultures. A 90-μL aliquot of the diluted culture was combined with a 10-μL aliquot of a 10× solution of the tested compounds in a 96-well plate, which was wrapped in […] and incubated at 30° C. with shaking at 150 rpm for 19 h. Bacterial growth was determined by measuring OD600 using a BIOTEK SYNERGY HT plate reader. Each well condition was prepared in duplicate, and at least three independent replicates were conducted on different days. The resulting mean OD600 are reported and the error bars are the standard deviation.
# Ampicillin and amoxicillin are β-lactam antibiotics that have periplasmic targets in Gram-negative bacteria and inhibit cell wall biosynthesis. The antibacterial activity of Ent-ampicillin and Ent-amoxicillin conjugates 44 and 45 was evaluated in vitro against a panel of Gram-negative and positive-bacteria.
# Select Ent-β-lactam conjugates (Ent-Amp and Ent-Amx) and their glucosylated derivatives (MGE-Amp, MGE-Amx, DGE-Amp, and DGE-Amx) were tested against 6 strains of E. coli. Four of them are non-pathogenic strains, namely K-12, B, H9049, and 25922, and the other two are uropathogenic clinical isolates, namely UTI89 and CFT073.
# [1] = test system: Salmonella enterica serovar Typhimurium (STM) IR715; assay: Antibacterial activity assay, Salmonella Typhimurium; assay type: cell-based; settings: 50% MHB, 100 μM 2,2′-dipyridyl, 30° C., t=19 h
# Protocol: FIGS. 12A and 12B show exemplary antibacterial activities of Ent-Amp, Ent-Amx, MGE-Amp, MGE-Amx, DGE-Amp, and DGE-Amx against Salmonella enterica serovar Typhimurium (STM) IR715 (50% MHB with 100 μM 2,2′-dipyridyl to provide conditions of iron limitation, 30° C., t=19 h). (FIG. 12A) Antibacterial activity of Amp and the Amp-containing conjugates (Ent-Amp, MGE-Amp, and DGE-Amp). […] (FIG. 12B) Antibacterial activity of Amx and the Amx-containing conjugates (Ent-Amx, MGE-Amx, and DGE-Amx).
# E. coli CFT073 [2] = assay: Antimicrobial activity assay, E. coli CFT073; assay type: cell-based, Escherichia coli; settings: Fe(III)-loaded versus apo conjugates, 50% MHB, 200 μM DP, 30° C., t=19 h
# Protocol: as §2
# In another exemplary experiment, antibacterial activities of the conjugates were tested against E. coli CFT073 in 50% MHB at 30° C., t=19 h. DP (200 μM) was added to provide conditions of iron limitation.
# In another exemplary experiment, antibacterial activities of Fe(III)-loaded or apo Ent-β-lactam conjugates (Ent-Amp and Ent-Amx) and their glucosylated derivatives (MGE-Amp, MGE-Amx, DGE-Amp, and DGE-Amx) against the uropathogenic strain E. coli CFT073 were tested in 50% MHB, 30° C., t=19 h. 2,2′-dipyridyl (DP, 200 μM) was added to provide conditions of iron limitation.
# [3] = test system: uropathogenic E. coli and non-pathogenic E. coli; assay: Mixed culture assays (summary), uropathogenic and non-pathogenic E. coli; assay type: cell-based, Escherichia coli; settings: uropathogenic with non-pathogenic E. coli
# Source text: No antibiotic marker was included in these cultures.
# E. coli CFT073 [4] = assay: Competition assay with native siderophores, E. coli CFT073; assay type: cell-based, Escherichia coli; settings: conjugate 100 nM, varied Ent, MGE or DGE, 50% MHB, 200 μM DP, 30° C., t=19 h
# Protocol: These assays were performed following the general procedure described herein except that varying concentrations of Ent, MGE, or DGE, each of which was unmodified, were mixed with Ent-Amp, Ent-Amx, MGE-Amp, MGE-Amx, DGE-Amp, or DGE-Amx. Ent was synthesized following a literature procedure^55 and stored as DMSO stock solution at −20° C. MGE and DGE were prepared from Ent using MceC and IroB as described for MGE-PEG3-N3 and DGE-PEG3-N3.
# (§3) In another exemplary experiment, select conjugates (Ent-Amp, MGE-Amp, and DGE-Amp) with select native siderophores (Ent, MGE, and DGE) were tested against the uropathogenic strain E. coli CFT073 in 50% MHB, t=19 h, 30° C. 2,2′-dipyridyl (DP, 200 μM) was added to provide conditions of iron limitation. The concentration of the conjugates was fixed at 100 nM and the concentration of the native siderophores was varied.
# as §3, with “(Ent-Amx, MGE-Amx,” for “(Ent-Amp, MGE-Amp,”, “DGE-Amx)” for “DGE-Amp)”, “DP (200” for “2,2′-dipyridyl (DP, 200”
# E. coli CFT073 [5] = assay: Antimicrobial activity assay in the presence of lipocalin 2; assay type: cell-based, Escherichia coli; settings: conjugate 100 nM, lcn2 1 μM, M9 minimal media, 37° C., 24 h
# Protocol: The bacterial cultures were grown in modified M9 minimal medium (Blango, M. G.; Ott, E. M.; Erman, A.; Veranic, P.; Mulvey, M. A. Forced Resurgence and Targeting of Intracellular Uropathogenic Escherichia coli Reservoirs. PLoS One 2014, 9, e93327-e93335) (Na2HPO4 6.8 g/L, KH2PO4 3 g/L, NaCl 0.5 g/L, NH4Cl 1 g/L, 0.4% glucose, 2 mM MgSO4, 0.1 mM CaCl2, 0.2% casein amino acids, and 16.5 μg/mL of thiamine) overnight. […] The cultures were serially diluted to an OD600 value of 0.00001 in fresh modified M9 minimal medium. Lipocalin 2 (Lcn2) was diluted into PBS buffer to a concentration of 20 μM upon arrival and frozen at −20° C. until use. Bovine serum albumin (BSA, Sigma-Aldrich) was prepared in PBS buffer to achieve a concentration of 20 μM. […] The bacterial growth was determined by measuring OD600 using the plate reader. […] The resulting mean OD600 was reported, and the error bars were the standard deviation. […] In contrast, Lcn2 had no effect of the antibacterial activity of MGE-Amp, MGE-Amx, DGE-Amp, or DGE-Amx.
# E. coli K-12 = assay: Antimicrobial activity assay, E. coli K-12; assay type: cell-based, Escherichia coli; settings: inhibition attributed to iron deprivation
# Protocol: as §2
# In an exemplary experiment, antibacterial activities of the conjugates were tested against E. coli K-12 in 50% MHB at 30° C., t=19 h. 2,2′-dipyridyl (DP, 200 μM) was added to provide conditions of iron limitation.
SMILES,attenuation of antibacterial activity by native siderophores (E. coli UTI89),antibacterial activity against uropathogenic compared to non-pathogenic E. coli (various E. coli strains),antibacterial activity relative to the unmodified antibiotic [1],effect of preloading Fe(III) on antibacterial activity (E. coli CFT073 [2]),strain-specific growth inhibition in the mixed culture assays [3],attenuation of antibacterial activity by native siderophores (E. coli CFT073 [4]),effect of lipocalin-2 (lcn2) on antibacterial activity (E. coli CFT073 [5]),concentrations at which E. coli K-12 was inhibited (E. coli K-12)
CC1(C)SC2C(NC(=O)C(NC(=O)CCCc3cn(CCOCCOCCOCCNC(=O)c4cc(O)c(O)c(C(=O)NC5COC(=O)C(NC(=O)c6cc(C7OC(CO)C(O)C(O)C7O)cc(O)c6O)COC(=O)C(NC(=O)c6cc(C7OC(CO)C(O)C(O)C7O)cc(O)c6O)COC5=O)c4)nn3)c3ccc(O)cc3)C(=O)N2C1C(=O)O (stereo not shown) [DGE-Amx],"attenuated by Ent, MGE, or DGE",greater antibacterial activity against the uropathogenic E. coli compared to non-pathogenic E. coli,enhanced antibacterial activity relative to unmodified Amx,no effect,specifically inhibited the growth of the uropathogenic E. coli,"attenuated by Ent, MGE, or DGE",unaffected; also recorded: no effect; also recorded: not attenuated,micromolar concentrations
CC1(C)SC2C(NC(=O)C(NC(=O)CCCc3cn(CCOCCOCCOCCNC(=O)c4cc(O)c(O)c(C(=O)NC5COC(=O)C(NC(=O)c6cc(C7OC(CO)C(O)C(O)C7O)cc(O)c6O)COC(=O)C(NC(=O)c6cccc(O)c6O)COC5=O)c4)nn3)c3ccc(O)cc3)C(=O)N2C1C(=O)O (stereo not shown) [MGE-Amx],"attenuated by Ent, MGE, or DGE",greater antibacterial activity against the uropathogenic E. coli compared to non-pathogenic E. coli,enhanced antibacterial activity relative to unmodified Amx,no effect,specifically inhibited the growth of the uropathogenic E. coli,"attenuated by Ent, MGE, or DGE",unaffected; also recorded: no effect; also recorded: not attenuated,micromolar concentrations
